Measured values taken from paper PMC4519236 (Bioorganic & medicinal chemistry, 2013).
pKi: −log10 of the molar value. Entries after “also recorded” stand apart in the source; their conditions may differ.

Tests used:
α4β2* nAChR [1] = target: α4β2* nAChR (Rattus norvegicus, UniProt P09483+P12390); assay: Radioligand binding assay, α4β2* nAChR
α4β2* nAChR [2] = target: α4β2* nAChR (Homo sapiens, UniProt P17787+P43681); assay: Electrophysiology, α4β2* nAChR expressed in Xenopus oocytes; format: cell-based; conditions: 1 or 10 μM; co-applied at 1 μM with ACh; relative to ACh control
α3β4* nAChR [3] = target: α3β4* nAChR (Homo sapiens, UniProt P30926+P32297); assay: Electrophysiology, α3β4* nAChR expressed in Xenopus oocytes; format: cell-based; conditions: 1 or 10 μM; co-applied at 1 μM with ACh; relative to ACh control
α7* nAChR = α7* nAChR (Rattus norvegicus, UniProt Q05941); assay: Radioligand binding assay, α7* nAChR
muscle subtype nAChR = muscle subtype nAChR (Homo sapiens, UniProt P02708+Q07001); assay: Electrophysiology, muscle subtype nAChR expressed in Xenopus oocytes; format: cell-based; conditions: 1 or 10 μM; co-applied at 1 μM with ACh; relative to ACh control
α3β4* nAChR [4] = assay: Radioligand binding assay, α3β4* nAChR
(α1)2β1γδ nAChR = (α1)2β1γδ nAChR (Tetronarce californica, UniProt P02710+P02714+P02718); assay: Radioligand binding assay, muscle type
mouse model = conditions: ref [26]; cited from earlier work
[5] = relative to vinyl spacer analog 26

Chain of α4β2* nAChR (Rattus norvegicus, UniProt P09483+P12390) (P09483 31-630): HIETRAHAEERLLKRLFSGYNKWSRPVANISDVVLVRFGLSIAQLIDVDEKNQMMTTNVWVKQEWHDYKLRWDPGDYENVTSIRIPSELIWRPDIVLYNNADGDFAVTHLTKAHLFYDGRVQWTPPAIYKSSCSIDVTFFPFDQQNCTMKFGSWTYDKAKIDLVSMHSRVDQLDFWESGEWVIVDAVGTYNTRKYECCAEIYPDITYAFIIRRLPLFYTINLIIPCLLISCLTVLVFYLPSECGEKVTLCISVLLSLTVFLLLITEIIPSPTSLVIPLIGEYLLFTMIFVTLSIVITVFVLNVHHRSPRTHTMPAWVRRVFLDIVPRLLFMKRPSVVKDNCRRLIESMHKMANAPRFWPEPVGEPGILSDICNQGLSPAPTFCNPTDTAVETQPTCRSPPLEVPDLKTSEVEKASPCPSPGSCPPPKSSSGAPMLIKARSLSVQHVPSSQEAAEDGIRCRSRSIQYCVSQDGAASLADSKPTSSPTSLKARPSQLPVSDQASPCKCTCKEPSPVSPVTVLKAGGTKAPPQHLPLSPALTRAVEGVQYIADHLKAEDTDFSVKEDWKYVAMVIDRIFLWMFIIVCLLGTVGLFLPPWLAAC
Chain of α4β2* nAChR (Rattus norvegicus, UniProt P09483+P12390) (P12390 25-500): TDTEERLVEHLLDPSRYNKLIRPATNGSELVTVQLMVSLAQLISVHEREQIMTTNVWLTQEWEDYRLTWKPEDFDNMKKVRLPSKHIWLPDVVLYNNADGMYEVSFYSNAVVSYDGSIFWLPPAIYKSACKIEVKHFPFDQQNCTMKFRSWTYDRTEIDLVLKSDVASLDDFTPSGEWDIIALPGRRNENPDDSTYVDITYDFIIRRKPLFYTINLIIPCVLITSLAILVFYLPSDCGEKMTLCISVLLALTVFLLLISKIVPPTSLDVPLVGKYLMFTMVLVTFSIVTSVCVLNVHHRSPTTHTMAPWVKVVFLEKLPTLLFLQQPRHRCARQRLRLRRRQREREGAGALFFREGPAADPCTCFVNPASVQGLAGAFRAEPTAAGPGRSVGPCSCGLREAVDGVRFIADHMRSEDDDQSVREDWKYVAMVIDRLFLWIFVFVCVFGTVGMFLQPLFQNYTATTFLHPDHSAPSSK
Chain of α4β2* nAChR (Homo sapiens, UniProt P17787+P43681) (P43681 29-627 limits assumed): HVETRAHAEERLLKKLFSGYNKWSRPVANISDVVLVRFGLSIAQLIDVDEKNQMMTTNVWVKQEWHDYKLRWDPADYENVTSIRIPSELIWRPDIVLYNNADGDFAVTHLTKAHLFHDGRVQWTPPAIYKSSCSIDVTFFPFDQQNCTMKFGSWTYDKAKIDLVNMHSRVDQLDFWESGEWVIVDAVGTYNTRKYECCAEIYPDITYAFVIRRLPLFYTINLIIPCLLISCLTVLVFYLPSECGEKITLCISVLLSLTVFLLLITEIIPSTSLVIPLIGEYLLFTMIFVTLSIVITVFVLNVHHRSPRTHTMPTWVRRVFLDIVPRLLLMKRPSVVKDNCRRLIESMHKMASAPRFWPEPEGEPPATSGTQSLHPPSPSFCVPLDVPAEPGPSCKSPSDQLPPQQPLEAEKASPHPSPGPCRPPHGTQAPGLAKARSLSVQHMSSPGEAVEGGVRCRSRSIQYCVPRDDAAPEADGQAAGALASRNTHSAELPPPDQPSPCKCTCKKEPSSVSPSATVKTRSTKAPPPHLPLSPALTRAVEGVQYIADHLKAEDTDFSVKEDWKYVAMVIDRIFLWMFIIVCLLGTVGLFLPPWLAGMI
Chain of α4β2* nAChR (Homo sapiens, UniProt P17787+P43681) (P17787 26-502): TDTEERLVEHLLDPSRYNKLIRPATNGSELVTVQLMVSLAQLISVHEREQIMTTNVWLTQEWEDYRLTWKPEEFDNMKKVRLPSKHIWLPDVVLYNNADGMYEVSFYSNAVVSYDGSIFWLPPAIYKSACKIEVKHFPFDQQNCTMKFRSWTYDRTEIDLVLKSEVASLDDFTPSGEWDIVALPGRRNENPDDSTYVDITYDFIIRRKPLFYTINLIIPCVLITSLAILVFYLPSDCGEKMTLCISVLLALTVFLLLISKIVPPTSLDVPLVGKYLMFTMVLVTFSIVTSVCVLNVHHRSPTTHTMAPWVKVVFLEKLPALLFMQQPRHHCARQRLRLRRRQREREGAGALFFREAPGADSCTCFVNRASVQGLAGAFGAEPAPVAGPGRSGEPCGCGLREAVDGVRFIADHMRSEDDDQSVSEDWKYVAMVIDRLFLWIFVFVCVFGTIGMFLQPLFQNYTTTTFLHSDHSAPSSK
Chain of α3β4* nAChR (Homo sapiens, UniProt P30926+P32297) (P32297 32-505): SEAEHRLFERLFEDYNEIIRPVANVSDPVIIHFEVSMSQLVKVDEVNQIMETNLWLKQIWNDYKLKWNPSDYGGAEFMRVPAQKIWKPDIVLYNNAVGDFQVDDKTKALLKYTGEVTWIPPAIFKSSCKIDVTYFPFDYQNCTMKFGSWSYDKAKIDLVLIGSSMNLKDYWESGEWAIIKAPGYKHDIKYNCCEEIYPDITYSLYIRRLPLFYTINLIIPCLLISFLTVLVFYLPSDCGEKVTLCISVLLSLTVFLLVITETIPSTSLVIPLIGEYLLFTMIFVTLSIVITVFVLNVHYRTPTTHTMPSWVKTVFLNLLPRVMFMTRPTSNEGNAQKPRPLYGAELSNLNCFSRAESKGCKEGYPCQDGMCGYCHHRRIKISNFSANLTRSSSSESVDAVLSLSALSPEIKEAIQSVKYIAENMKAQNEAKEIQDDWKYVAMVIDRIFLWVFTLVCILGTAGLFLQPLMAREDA
Chain of α3β4* nAChR (Homo sapiens, UniProt P30926+P32297) (P30926 22-498): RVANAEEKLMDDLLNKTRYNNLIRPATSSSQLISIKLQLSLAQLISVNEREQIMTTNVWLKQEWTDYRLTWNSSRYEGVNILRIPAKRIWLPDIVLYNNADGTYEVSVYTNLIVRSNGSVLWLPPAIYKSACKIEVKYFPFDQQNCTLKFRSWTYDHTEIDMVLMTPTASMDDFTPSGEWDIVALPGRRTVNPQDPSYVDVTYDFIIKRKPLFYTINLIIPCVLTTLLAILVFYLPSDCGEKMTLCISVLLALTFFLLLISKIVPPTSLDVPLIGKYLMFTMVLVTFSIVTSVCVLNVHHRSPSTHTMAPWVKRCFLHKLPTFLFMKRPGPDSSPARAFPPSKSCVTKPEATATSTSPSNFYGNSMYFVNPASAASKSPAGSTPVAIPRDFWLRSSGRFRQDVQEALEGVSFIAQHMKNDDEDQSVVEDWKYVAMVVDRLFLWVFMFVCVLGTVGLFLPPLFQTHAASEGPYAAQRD
Chain of α7* nAChR (Q05941 23-502): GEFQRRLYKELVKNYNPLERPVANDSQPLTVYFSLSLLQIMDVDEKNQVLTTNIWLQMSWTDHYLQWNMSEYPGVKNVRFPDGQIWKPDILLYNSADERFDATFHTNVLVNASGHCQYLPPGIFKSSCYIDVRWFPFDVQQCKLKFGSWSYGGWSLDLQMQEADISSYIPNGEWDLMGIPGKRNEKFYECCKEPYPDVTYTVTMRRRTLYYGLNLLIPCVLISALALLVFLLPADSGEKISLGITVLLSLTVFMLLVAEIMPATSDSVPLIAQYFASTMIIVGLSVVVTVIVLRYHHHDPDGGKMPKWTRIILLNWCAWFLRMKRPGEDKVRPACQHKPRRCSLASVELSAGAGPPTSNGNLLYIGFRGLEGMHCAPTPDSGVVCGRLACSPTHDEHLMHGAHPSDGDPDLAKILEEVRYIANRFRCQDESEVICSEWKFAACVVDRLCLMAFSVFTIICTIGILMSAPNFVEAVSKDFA
Chain of muscle subtype nAChR (P02708 21-457): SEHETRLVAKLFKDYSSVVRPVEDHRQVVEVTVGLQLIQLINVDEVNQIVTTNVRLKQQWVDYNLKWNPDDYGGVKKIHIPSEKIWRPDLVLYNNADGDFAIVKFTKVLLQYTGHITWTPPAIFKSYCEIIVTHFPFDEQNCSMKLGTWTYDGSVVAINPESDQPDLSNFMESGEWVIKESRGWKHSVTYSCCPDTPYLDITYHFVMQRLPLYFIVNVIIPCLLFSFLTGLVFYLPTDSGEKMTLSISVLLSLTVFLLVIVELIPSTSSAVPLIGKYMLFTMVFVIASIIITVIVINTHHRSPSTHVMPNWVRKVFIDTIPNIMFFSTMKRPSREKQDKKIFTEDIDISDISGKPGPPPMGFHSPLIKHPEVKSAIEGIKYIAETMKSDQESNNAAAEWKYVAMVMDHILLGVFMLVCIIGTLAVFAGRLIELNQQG
Chain of muscle subtype nAChR (P11230 24-501 partner): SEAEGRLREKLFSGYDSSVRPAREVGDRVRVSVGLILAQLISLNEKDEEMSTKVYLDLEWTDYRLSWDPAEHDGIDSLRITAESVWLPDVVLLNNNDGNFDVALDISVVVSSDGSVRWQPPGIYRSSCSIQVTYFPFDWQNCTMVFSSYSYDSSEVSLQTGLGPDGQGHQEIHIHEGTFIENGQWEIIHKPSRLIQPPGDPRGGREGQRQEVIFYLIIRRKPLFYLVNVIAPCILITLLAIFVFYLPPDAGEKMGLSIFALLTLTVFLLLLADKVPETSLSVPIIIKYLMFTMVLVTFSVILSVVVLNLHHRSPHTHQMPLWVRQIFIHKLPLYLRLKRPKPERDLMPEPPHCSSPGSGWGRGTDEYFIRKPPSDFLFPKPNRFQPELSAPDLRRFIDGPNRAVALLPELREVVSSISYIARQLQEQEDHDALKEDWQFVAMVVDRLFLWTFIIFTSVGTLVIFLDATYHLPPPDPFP
Chain of muscle subtype nAChR (Q07001 22-517): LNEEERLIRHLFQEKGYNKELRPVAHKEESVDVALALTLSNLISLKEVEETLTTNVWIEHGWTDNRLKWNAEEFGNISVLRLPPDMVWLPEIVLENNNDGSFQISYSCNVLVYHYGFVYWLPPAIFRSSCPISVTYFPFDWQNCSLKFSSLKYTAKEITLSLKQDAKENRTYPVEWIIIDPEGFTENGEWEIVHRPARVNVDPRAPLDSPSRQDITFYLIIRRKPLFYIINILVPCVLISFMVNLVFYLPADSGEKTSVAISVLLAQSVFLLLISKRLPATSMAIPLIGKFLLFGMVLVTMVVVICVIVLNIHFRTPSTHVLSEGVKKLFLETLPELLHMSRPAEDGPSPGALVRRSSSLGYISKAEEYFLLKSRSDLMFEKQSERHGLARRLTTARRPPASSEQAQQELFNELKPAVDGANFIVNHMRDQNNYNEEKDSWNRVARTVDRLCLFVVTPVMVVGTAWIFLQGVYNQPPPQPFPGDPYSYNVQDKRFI

For `O=C(Cc1ccccc1)N1C[C@@H]2CNC[C@@H](C2)C1` [Compound 30, 1-((1R,5S)-3,7-diazabicyclo[3.3.1]nonan-3-yl)-2-phenylethanone], the “increase of α4β2* affinity” value (α4β2* nAChR [1]; relative to compound 29) was “about 8 fold”.
With `COc1ccc(C#CC(=O)N2C[C@@H]3CNC[C@@H](C3)C2)cc1Cl` [Compound 47, 1-((1R,5S)-3,7-diazabicyclo[3.3.1]nonan-3-yl)-3-(3-chloro-4-methoxyphenyl)prop-2-yn-1-one] the “functional effect at α4β2*” value (α4β2* nAChR [2]) was “strongest antagonistic effects”.
In the case of `O=C([C@@H]1C[C@H]1c1ccccc1)N1C[C@@H]2CNC[C@@H](C2)C1` [Compound 15, (1R,5S)-3,7-diazabicyclo[3.3.1]nonan-3-yl((1R,2R)-2-phenylcyclopropyl)methanone], the pKi (α4β2* nAChR [1]) was about 9.00, the “functional effect at α4β2*” value (α4β2* nAChR [2]) was “strongest antagonistic effects” and the “functional effect at α3β4*” value (α3β4* nAChR [3]) was “agonist; also recorded: most potent agonist”.
In the case of `O=C(c1ccc(-n2ccnc2)cc1)N1C[C@@H]2CNC[C@@H](C2)C1` [Compound 54, (4-(1H-imidazol-1-yl)phenyl)((1R,5S)-3,7-diazabicyclo[3.3.1]nonan-3-yl)methanone], the “functional effect at α4β2*” value (α4β2* nAChR [2]) was “strongest antagonistic effects”.
In the case of `O=C(CCc1ccccc1)N1C[C@@H]2CNC[C@@H](C2)C1` [Compound 32, 1-((1R,5S)-3,7-diazabicyclo[3.3.1]nonan-3-yl)-3-phenylpropan-1-one], the “affinity for α7* nAChR, in words” value (α7* nAChR) was “no affinity”.
In the case of `O=C(C#Cc1ccccc1)N1C[C@@H]2CNC[C@@H](C2)C1` [Compound 42], the “higher affinity for α4β2*” value (α4β2* nAChR [1]; relative to analogs 32 and 16) was 5 times.
For `O=C(c1ccc(-c2cccnc2)cc1)N1C[C@@H]2CNC[C@@H](C2)C1` [Compound 52, (1R,5S)-3,7-diazabicyclo[3.3.1]nonan-3-yl(4-(pyridin-3-yl)phenyl)methanone], the “functional effect at α4β2*” value (α4β2* nAChR [2]) was “strongest antagonistic effects”.
In the case of `COc1ccc(C#CC(=O)N2C[C@@H]3CNC[C@@H](C3)C2)cc1OC` [Compound 46, 1-((1R,5S)-3,7-diazabicyclo[3.3.1]nonan-3-yl)-3-(3,4-dimethoxyphenyl)prop-2-yn-1-one], the “higher affinity for α4β2*” value (α4β2* nAChR [1]; [5]) was about 10 fold, the “functional effect at α4β2*” value (α4β2* nAChR [2]) was “strongest antagonistic effects” and the “functional effect at muscle subtype” value (muscle subtype nAChR) was “some antagonistic effect”.
With `O=C(/C=C/c1ccccc1)N1C[C@@H]2CNC[C@@H](C2)C1` [Compound 16, (E)-1-((1R,5S)-3,7-diazabicyclo[3.3.1]nonan-3-yl)-3-phenylprop-2-en-1-one] the “affinity for α3β4* nAChR, in words” value (α3β4* nAChR [4]) was “lacked affinity”, the “affinity for α7* nAChR, in words” value (α7* nAChR) was “lacked affinity” and the “affinity for (α1)2β1γδ nAChR, in words” value ((α1)2β1γδ nAChR) was “lacked affinity”.
For `O=C(c1csc(-c2ccncc2)n1)N1C[C@@H]2CNC[C@@H](C2)C1` [Compound 55, (1R,5S)-3,7-diazabicyclo[3.3.1]nonan-3-yl(2-(pyridine-4-yl)thiazol-4-yl)methanone], the “affinity for α4β2* / nAChRs tested, in words” value (α4β2* nAChR [1]) was “did not show any affinity”.
For `O=c1c(-c2ccccc2)ccc2n1C[C@@H]1CNC[C@H]2C1` [Compound 4, 9-phenyl-1,2,3,4,5,6-hexahydro-1,5-methano-pyridino[1,2-a]diazocin-8-one], the “α4β2* affinity lower than cytisine 1” value (α4β2* nAChR [1]; relative to cytisine 1) was “about 1000 times”.
For `O=C(c1ccc(-c2ccncc2)cc1)N1C[C@@H]2CNC[C@@H](C2)C1` [Compound 53, (1R,5S)-3,7-diazabicyclo[3.3.1]nonan-3-yl(4-(pyridin-4-yl)phenyl)methanone], the “functional effect at α4β2*” value (α4β2* nAChR [2]) was “strongest antagonistic effects”.
For `O=C(C#Cc1ccc2c(c1)OCO2)N1C[C@@H]2CNC[C@@H](C2)C1` [Compound 50, 1-((1R,5S)-3,7-diazabicyclo[3.3.1]nonan-3-yl)-3-(benzo[d][1,3]dioxol-5-yl)prop-2-yn-1-one], the “higher affinity for α4β2*” value (α4β2* nAChR [1]; [5]) was about 10 fold and the “functional effect at α4β2*” value (α4β2* nAChR [2]) was “strongest antagonistic effects”.
In the case of `CS(=O)(=O)c1ccc(CC(=O)N2C[C@@H]3CNC[C@@H](C3)C2)cc1` [Compound 35, 1-((1R,5S)-3,7-diazabicyclo[3.3.1]nonan-3-yl)-2-(4-(methylsulfonyl)phenyl)ethanone], the “functional effect at α4β2*” value (α4β2* nAChR [2]) is listed as “strongest antagonistic effects” and the “in vivo activity in a mouse model” value (mouse model) is listed as “antidepressive effect”.
With `O=C(Cc1c(F)c(F)c(F)c(F)c1F)N1C[C@@H]2CNC[C@@H](C2)C1` [Compound 34, 1-((1R,5S)-3,7-diazabicyclo[3.3.1]nonan-3-yl)-2-(2,3,4,5,6-pentafluorophenyl)ethanone] the “affinity for α4β2* / nAChRs tested, in words” value (α4β2* nAChR [1]) was “failed to interact”.
